Patent publication US5830910A (priority 1995, dated 1998)
Entries after “also recorded” stand apart in the source; their conditions may differ.

What was measured:
[1] = tested on: neuronal [Ca^2+]i in cultured hippocampal neurons; assay: measurement of [Ca^2+]i, fura-2 imaging; assay type: cell-based, rat; conditions: for reduction in peak [Ca^2+]i response to glutamate: 1 h
Description: (§1) Dissociated embryonic rat hippocampal cell cultures were established and maintained. All procedures conformed with the NIH Guide for the Care and Use of Laboratory Animals and were approved by the University of Kentucky Animal Care and Use Committee. Cultures were maintained on a polyethyleneimine-coated substrate in plastic 35-mm dishes or 96 wall plates (for cell survival studies) or glass-bottom 35-mm dishes (for [Ca^2+ ]i imaging studies). The cell density was ^~ 70-100 cells/mm^2. Cells were maintained in Eagle's minimum essential medium supplemented 10% with fetal bovine serum and containing 20 mM sodium pyruvate. […] Aβ25-35 (Bachem, lot ZJ744) and Aβ1-40 (Bachem, lot ZK600) were stored in the lyophilized form, and stocks were prepared immediately before use by dissolving the peptide at a concentration of 1 mM in sterile distilled water. […] Glutamate and colchicine (Sigma) were prepared as 200-500x stocks in saline. Cytochalasins D and E (Sigma) and calcium ionophore 4-bromo-A23187 (Calbiochem) were prepared as 500x stocks in dimethyl sulfoxide. Vitamin E (α-tocopherol; Sigma) was prepared as a 500x stock in ethanol. Nordihydroguaiaretic acid and FeSo4 were prepared as 500x stocks in sterile water.
Fluorescence ratio imaging of the Ca^2+ indicator dye fura-2 was used to quantify [Ca^2+ ]i in neuronal somata. Cells were incubated for 30-40 min in the presence of 2 μM acetoxymethyl ester form of the [Ca^2+ ]i indicator dye fura-2 and were then washed twice (2 ml/wash) with fresh medium and allowed to incubate at least 40 min before imaging. Immediately before imaging, the normal culture medium was replaced with Hanks' balanced saline solution (GIBCO) containing 10 mM HEPES buffer and 10 mM of glucose. Cells were imaged using a Zeiss Attofluor system with a oil objective or Quantex system with a 40x oil objective. The ratio of the fluorescence emission using two different excitation wavelengths (334 and 380 nm) was used to determine [Ca^2+ ]i. The system was calibrated using solutions containing either no Ca^2+ or a saturating level of Ca^2+ (1 mM) according to the following formula: [Ca^2+ ]i =KD [(R-Rmin) / (Rmax -R)] (F0 /FS). Values represent the average [Ca^2+ ]i in the neuronal cell body. Experimental treatments were added to the bathing medium by dilution from 100-500x stocks.
(A) Cultures were pretreated for 1 hr with 100 nM cytochalasin D and then [Ca^2+ ]i in neurons was monitored prior to and following exposure to 50 μM glutamate. The records represent the mean [Ca^2+ ]i in 8-12 neurons. Similar results were obtained in 4 separate experiments.
(B) Aβ-induced potentiation of [Ca^2+ ]i response to glutamate is abrogated by cytochalasin D. Cultures were left untreated (Control) or were exposed to 20 μM Aβ25-35 for 6 hr or cytochalasin D plus Aβ25-35 for 6 hr. The [Ca^2+ ]i was then monitored prior to following exposure to 50 μM glutamate. Values represent the means of 8-14 neurons. Similar results were obtained in 3 separate experiments.
(C) Cultures were pretreated for 3 hr with 50 μM Aβ alone or in combination with 100 nM cytochalasin D. The [Ca^2+ ]i in neurons was then monitored prior to and following exposure to 50 mM KCl. Values represent the mean of 14-23 neurons. Similar results were obtained in a separate experiment.
(D) Cultures were pretreated for 1 h with 100 nM cytochalasin D. The [Ca^2+ ]i in neurons was measured immediately prior to, and at 5 min following, exposure to the indicated concentrations of glutamate. Values represent the means and SEM of determinations made in 17-26 neurons. *P<0.05 (10 μM glutamate), P<0.02 (50 μM glutamate), P<0.01 (100 μAM glutamate) compared to corresponding control values.
FIG. 9. Cultures were pretreated for 3 h with vehicle (control) or 10 μM jasplakinolide. The [Ca^2+ ]i was monitored prior to and following exposure to 50 μM glutamate. Values represent the mean of determinations made in 10-12 neurons. Similar results were obtained in two additional experiments.
FIG. 10. […]

[2] = tested on: cultured hippocampal neurons; assay: cells; assay type: cell-based, rat
Description: as §1
Neuronal survival was quantified by counting viable neurons in the same microscope fields (10x objective) immediately before experimental treatment and at time points after treatment. In addition, cells were grown in 96-well plates and Alamar blue fluorescence (Alamar Laboratories)was quantified by using a fluorescence plate reader. Alamar Blue is a non-fluorescent substrate that, after reduction by cell metabolites, becomes fluorescent. Usually neurons that died in the time intervals (20-48 h) between examination points were absent. Viability of the remaining neurons was assessed by morphological criteria. Neutrons with intact neurites of uniform diameter and a soma with a smooth, round appearance were considered viable, whereas neurons with fragmented neurites and a vacuolated or swollen soma were considered nonviable. Survival values were expressed as percentages of the initial number of neurons present before experimental treatment. Statistical comparisons were made using ANOVA and Scheffe post-hoc tests for pairwise comparisons.
FIG. 5. […] Cytochalasin D was added to cultures 30 min prior to exposure to glutamate, and control cultures were exposed to 0.2% dimethylsulfoxide.
(A) Neuronal survival was quantified in cultures that had been pretreated with the indicated concentrations of cytochalasin D and then exposed to 50 μM glutamate for 20 h. Values represent the means and SEM of determinations made in four separate cultures. […] Pairwise statistical comparisons of cytochalasin-treated cultures with the control survival (Scheffe's test) indicated 1 nM cytochalasin D, P<0.05; 10 nM cytochalasin D, P<0.001; 100 and 1000 nM cytochalasin D, P<0.0001.
(B) Neuronal survival was quantified in cultures that had been pretreated with either vehicle (control) or 100 nM cytochalasin D and then exposed to the indicated concentrations of glutamate for 20 h. Values represent the means and SEM of determinations made in four separate cultures. […] ANOVA with Scheffe's post hoc test.
FIG. 6. (A) Cultures were pretreated with 100 nM cytochalasin D (CyD), 100 nM cytochalasin E (CyE), or 100 nM colchicine (Colch). Cultures were then exposed to 50 μM glutamate for 20 h. Values for neuronal survival represent the means and SEM of determinations made in four separate cultures. *P<0.001 compared to control value. **P<0.001 compared to value for cultures exposed to glutamate alone.
[…] Values represent the means and SEM of determinations made in four separate cultures. *P<0.01 compared to value for cultures exposed to 20 μM glutamate alone. **P<0.05 compared to cultures exposed to 50 μM glutamate alone.

SMILES	effect on [Ca^2+]i response to glutamate ([1]; 100 nM)	rest [Ca^2+]i, alone ([1]; alone, data not shown)	effect on [Ca^2+]i response to Aβ ([1]; data not shown)	protection against glutamate toxicity ([2]; 100 nM, 50 μM glutamate, 20 h)	effect on [Ca^2+]i response to calcium ionophore A23187 ([1]; 100 nM pretreatment, 500 nM A23187)	effect on K^+-induced elevation of [Ca^2+]i ([1]; 100 nM pretreatment, 50 mM KCl)	reduction in peak [Ca^2+]i response to glutamate ([1]; 100 nM, 10 μM glutamate, P<0.05)	reduction in peak [Ca^2+]i response to glutamate ([1]; 100 nM, 50 μM glutamate, P<0.02)	reduction in peak [Ca^2+]i response to glutamate ([1]; 100 nM, 100 μM glutamate, P<0.01)	rest [Ca^2+]i after Aβ exposure ([1]; 100 nM, 1 h pretreatment, 50 μM Aβ for 3 and 6 h)	reduction of [Ca^2+]i response to glutamate ([1]; 100 nM, 1 hr pretreatment, 50 μM glutamate)	effect on Aβ-induced potentiation of [Ca^2+]i response to glutamate ([1]; Aβ pretreatment, 50 μM glutamate)	[Ca^2+]i responses to glutamate, Aβ, and membrane depolarization ([1]; pretreated)	neuronal survival upon exposure to glutamate ([2]; 100 nM pretreatment, 10 μM (P<0.05), 50 μM (P<0.001), 100 μM (P<0.02) glutamate, 20 h)	neurons killed upon exposure to glutamate ([2]; 100 nM pretreatment, 50 μM glutamate, 20 h)	effect on neuronal survival, alone ([2]; 10-100 nM alone, 20-h exposure)
COc1cc2c(c(OC)c1OC)-c1ccc(OC)c(=O)cc1[C@@H](NC(C)=O)CC2 [Colchicine, colchicine, reference compound]	did not attenuate	elevation of rest [Ca^2+ ]i	did not attenuate	did not protect neurons against glutamate toxicity	–	–	–	–	–	–	–	–	–	–	–	–
C=C1[C@@H](C)[C@H]2[C@H](Cc3ccccc3)NC(=O)[C@]23[C@H](OC(C)=O)/C=C/[C@@](C)(O)C(=O)[C@@H](C)C/C=C/[C@H]3[C@@H]1O [Cytochalasin D, cytochalasin D]	–	–	–	–	did not attenuate; also recorded: does not affect	suppressed	approximately 60 nM	approximately 170 nM	~460 nM	not significantly elevated	approximately 30%	completely blocked; also recorded: suppressed; also recorded: abrogated	attenuated	significantly greater	< 10%	no significant effect on neuronal survival
